Assay results as given in patent publication US20200230207A1, “TREATMENT OF BONE GROWTH DISORDERS” (FONDAZIONE TELETHON, priority 2015, published 2020).

Tests used:
[1] = system: MPS VII primary chondrocytes; assay: mTORC1 signaling and autophagy flux in MPS VII primary chondrocytes treated with Torin1; assay type: cell-based, mouse; conditions: 1 μM, 24 hours
Protocol: FIG. 28: Pharmacological inhibition of mTORC1 restores autophagy flux in MPS VII chondrocytes. α-b, biochemical analysis in primary chondrocytes treated with Torin1 (1 μM) for 24 hours (a) and quantification (b). Data shown in (b) are mean+SE of 3 independent experiments.
Primary chondrocytes were isolated from the rib cage of P5 mice (wild-type and MPS VII) and were plated at the density of 10^5 cells/cm^2. After 3 days in culture cells were splitted in 12 wells chamber, synchronized with AA, treated with Torin1 (1 μM) for 24 hours and harvested for biochemical analysis.

[2] = system: GusbKO RCS cells; assay: UVRAG phosphorylation and AV-Lys fusion in GusbKO RCS chondrocytes; assay type: cell-based, rat; conditions: 1 μM, 6h
Protocol: FIG. 32: mTORC1 inhibits AV-Lys fusion in MPS via UVRAG. A, immunoprecipitation assay testing the increase of UVRAG phosphorylation in RCS GusbKO relative to RCS WT cells. The increase is blunted in the presence of Torin-1 (1 μM; 6h). B, immunoprecipitation assay testing physical interactions between endogenous UVRAG, Rubicon and Beclin-1 in RCS WT and GusbKO RCS chondrocytes after 6h amino acid treatment. Cell lysates were immunoprecipitated with an UVRAG-specific antibody followed by probing with antibodies specific for P-UVRAG (S498), UVRAG, Rubicon or Beclin-1. C, myc-UVRAG was transiently expressed in Gusb^−/− primary chondrocytes. Myc expression, LC3 and P62 were monitored by fluorescence microscope two days post-transfection and after 24h amino acid treatment. Scale bar, 10 μm. Quantitative analysis of P62 and LC3 puncta. Mean value is shown as a horizontal bar. (Student's t-test, *** p<0.0005, n≥20). […] Blot is representative of 3 independent experiments. E, quantification of protein amount normalized to β-actin and relative to RCS WT (ANOVA, P62 P<0.0001, Tukey's post-hoc test, ***p<0.0005, **p<0.005, *p<0.05). […] Scale bar, 10 μm. Quantification of Lamp-1-LC3 co-localization is shown as mean (±s.e.m.) of Mander's Coefficients resulting from three independent experiments (Student's t-test, *p<0.05).

[3] = system: young rats; conditions: cited from earlier work
[4] = system: kidney transplanted children; conditions: small series of kidney transplanted children; cited from earlier work

| SMILES | LC3 II and p62 levels [1] | autophagy defects [1] | phosphorylation of mTORC1 substrates [1] | UVRAG serine 497 (S497) phosphorylation [2] | longitudinal growth ([3]; rats) | angiogenesis, proliferation and hypertrophy of growth cartilage chondrocytes ([3]; young rats) | growth rate compared with control group not treated [4] |
| --- | --- | --- | --- | --- | --- | --- | --- |
| CCC(=O)N1CCN(c2ccc(-n3c(=O)ccc4cnc5ccc(-c6cnc7ccccc7c6)cc5c43)cc2C(F)(F)F)CC1 [Torin1] | normalization | rescues | completely suppresses | blunted |  |  |  |
| CO[C@H]1C[C@@H]2CC[C@@H](C)[C@@](O)(O2)C(=O)C(=O)N2CCCC[C@H]2C(=O)O[C@H]([C@H](C)C[C@@H]2CC[C@@H](O)[C@H](OC)C2)CC(=O)[C@H](C)/C=C(\C)[C@@H](O)[C@@H](OC)C(=O)[C@H](C)C[C@H](C)/C=C/C=C/C=C/1C [rapamycin] |  |  |  |  | impairs longitudinal growth | disrupts angiogenesis and decreases proliferation and hypertrophy of growth cartilage chondrocytes | lower growth rate |
